In ChEMBL document CHEMBL3576823, “Cystargolides, 20S Proteasome Inhibitors Isolated from Kitasatospora cystarginea” (J Nat Prod, 2015):
pIC50, pKi: −log10 of the molar value.

Legend:
[1] = target: T1, Proteasome Macropain subunit MB1 (Homo sapiens, UniProt P28074); test: Inhibition of chymotrypsin-like activity of human erythrocyte-derived 20S proteasome using Suc-LLVY-AMC as substrate preincubated for 10 mins followed by substrate addition measured every 15 secs for 30 mins by fluorescence assay
T1 sequence (P28074 whole entry): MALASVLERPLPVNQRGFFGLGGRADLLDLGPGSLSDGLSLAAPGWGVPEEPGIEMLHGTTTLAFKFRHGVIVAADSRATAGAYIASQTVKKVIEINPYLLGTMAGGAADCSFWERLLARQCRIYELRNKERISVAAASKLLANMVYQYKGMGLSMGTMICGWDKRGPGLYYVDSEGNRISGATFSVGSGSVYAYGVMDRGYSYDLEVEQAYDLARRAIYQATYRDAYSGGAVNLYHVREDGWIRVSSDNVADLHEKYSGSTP

[2] = Inhibition of chymotrypsin-like activity of rabbit 20S proteasome using Suc-LLVY-AMC as substrate after 2 hrs by fluorescence assay; design: species or system Oryctolagus cuniculus
[3] = Inhibition of proteasome (unknown origin); design: species or system Homo sapiens

`CC[C@H](C)[C@H](NC(=O)[C@@H](NC(=O)C1OC(=O)C1C(C)C)C(C)C)C(=O)O` (stereo not given in full) gave a pIC50 [1] of 6.44.

For `CC[C@H](C)[C@@H]1C(=O)O[C@H]1C(=O)N[C@H]1C[C@H]1C[C@H](NC(=O)[C@H](C)N)C(=O)O` [BELACTOSIN A], the pIC50 [2] was 6.68.

With `CC[C@H](C)[C@@H]1C(=O)O[C@H]1C(=O)NCCC[C@H](NC(=O)[C@H](C)N)C(=O)O` [BELACTOSIN C] the pIC50 [2] was 6.68.

With `CC(C)C[C@H](NC(=O)[C@H](Cc1ccccc1)NC(=O)c1cnccn1)B(O)O` [BORTEZOMIB] the pKi [3] was 9.22.

With `CC(C)C[C@H](NC(=O)[C@H](CCc1ccccc1)NC(=O)CN1CCOCC1)C(=O)N[C@@H](Cc1ccccc1)C(=O)N[C@@H](CC(C)C)C(=O)[C@@]1(C)CO1` [CARFILZOMIB] the pIC50 [3] was 8.30.
